Measurements reported in paper PMC7765930, “Antiproliferative Phenanthrenes from Juncus tenuis: Isolation and Diversity-Oriented Semisynthetic Modification” (Molecules, 2020).
Like-named read-outs stand apart in the source and are kept apart here.

Columns and labels:
[1] = system: Breast cancer cell line MCF-7; test: MTT antiproliferative assay, MCF-7; assay type: cell-based, human; conditions: for IC50: MTT assay, 72 h, 100–0.19 μM, read-out: IC50 (µM) ± SD MCF-7
Description: (§1) Breast cancer cell line MCF-7 (ATCC® HTB-22) and the drug-resistant subline of the human breast cancer MCF-7 (ECACC 86012803; KCR) were purchased from LGC Promochem (Teddington, UK). Both cell lines were cultured in Eagle’s Minimal Essential Medium (EMEM, containing 4.5 g/L glucose) supplemented with a non-essential amino acid mixture, a selection of vitamins, and 10% heat-inactivated fetal bovine serum. In every third passage, 0.56 µg/mL doxorubicin was added to the medium, in order to maintain the ABCB1 (P-glycoprotein) expression in KCR cells. A2780 human ovarian cancer cell line (ECACC, European Collection of Authentical Cell Culture, Sigma Cat.no. 93112519) was purchased from Merck KGaA (Darmstadt, Germany). The cisplatin-resistant human ovarian cancer cell line A2780cis (ECACC European Collection of Authentical Cell Culture, Sigma Cat.no. 93112517) was purchased from Merck KGaA (Darmstadt, Germany). The human ovarian cancer cell lines were cultured in RPMI 1640 medium supplemented with 10% heat-inactivated fetal bovine serum. […] HeLa (ATCC® CCL-2™) human cervix carcinoma cell line was purchased from LGC Promochem (Teddington, UK). The cells were cultured in Eagle’s Minimal Essential Medium (EMEM, containing 4.5 g/L glucose) supplemented with a non-essential amino acid mixture, a selection of vitamins, and 10% heat-inactivated fetal bovine serum. MRC-5 human embryonal lung fibroblast cell line (ATCC® CCL-171) was purchased from LGC Promochem, Teddington, UK. The cell line was cultured in Eagle’s Minimal Essential Medium (EMEM, containing 4.5 g/L glucose) supplemented with a non-essential amino acid mixture, a selection of vitamins, and 10% heat-inactivated fetal bovine serum. HTB-26 breast adenocarcinoma cell line was purchased from LGC Promochem, Teddington, UK. The cell line was cultured in RPMI 1640 medium supplemented with 10% heat-inactivated fetal bovine serum. T-47D (ATCC® HTB-133™) ductal carcinoma cell line was purchased from LGC Promochem, Teddington, UK. The cells were cultured in RPMI 1640 medium supplemented with 10% heat-inactivated fetal bovine serum, 2 mM L-glutamine, 1 mM Na-pyruvate, and 100 mM Hepes. All of the cells were incubated at 37 °C, in a 5% CO2 and 95% air atmosphere.
(§2) The antiproliferative effect of the compounds was determined on human breast (MCF-7, KCR, T47D, and HTB-26), cervical (HeLa), and ovarian (A2780 and A2780cis) cancer cells, and on MRC-5 (human embryonic lung fibroblast) cell lines. The adherent cells were cultured in 96-well flat-bottomed microtiter plates, using EMEM supplemented with 10% heat-inactivated fetal bovine serum or RPMI 1640 supplemented with 10% heat-inactivated fetal bovine serum, respectively. The density of the cells was adjusted to 6 × 10^3 cells in 100 μL per well, the cells were seeded for 24 h at 37 °C, with 5% CO2, and then the medium was removed from the plates, and fresh medium (100 μL per well) was added to the cells. The effects of increasing concentrations of compounds on cell proliferation were tested in 96-well flat-bottomed microtiter plates. The compounds were diluted in the appropriate medium; the dilutions of compounds were performed in separate plates and then added to the cells. The starting concentration of the compounds was 100 μM, and two-fold serial dilution was performed (concentration range: 100–0.19 μM). The culture plates were incubated at 37 °C for 72 h; at the end of the incubation period, 20 μL of MTT (thiazolyl blue tetrazolium bromide, Sigma) solution (from a stock solution of 5 mg/mL) was added to each well. After incubation at 37 °C for 4 h, 100 μL of sodium dodecyl sulfate (SDS) (Sigma) solution (10% in 0.01 M HCI) was added to each well, and the plates were further incubated, at 37 °C, overnight. Cell growth was determined by measuring the optical density (OD) at 540/630 nm, with a Multiscan EX ELISA reader (Thermo Labsystems, Cheshire, WA, USA). […]

[2] = system: HeLa human cervix carcinoma cell line; test: MTT antiproliferative assay, HeLa; assay type: cell-based; conditions: 72 h, 100–0.19 μM, read-out: IC50 (µM) ± SD HeLa
Description: as §1, §2

[3] = system: HTB-26 breast adenocarcinoma cell line; test: MTT antiproliferative assay, HTB-26; assay type: cell-based, human; conditions: 100–0.19 μM, read-out: IC50 (µM) ± SD HTB-26
Description: as §1, §2

[4] = system: KCR, drug-resistant subline of the human breast cancer MCF-7; test: MTT antiproliferative assay, KCR; assay type: cell-based; conditions: 100–0.19 μM, read-out: IC50 (µM) ± SD KCR
Description: as §1, §2

[5] = system: A2780 human ovarian cancer cell line; test: MTT antiproliferative assay, A2780; assay type: cell-based; conditions: 100–0.19 μM, read-out: IC50 (µM) ± SD A2780
Description: as §1, §2

[6] = system: cisplatin-resistant human ovarian cancer cell line A2780cis; test: MTT antiproliferative assay, A2780cis; assay type: cell-based; conditions: 72 h, 100–0.19 μM, read-out: IC50 (µM) ± SD A2780cis
Description: as §1, §2

[7] = system: G2/M and subG1 cell cycle phase; set-up: method as in PMID 31005716; conditions: even at lower concentrations; cited from earlier work
[8] = system: normal skin fibroblasts CCD966SK; set-up: method as in PMID 31005716; conditions: even at higher concentrations; cited from earlier work
HeLa cells = system: HeLa cells; set-up: method as in PMID 30127296, PMID 31005716; conditions: previously described, read-out: IC50, antiproliferative activity on HeLa cells; cited from earlier work
tubulin = system: tubulin; set-up: method as in PMID 31005716; conditions: at 200 µM; cited from earlier work
caspase-3 = system: caspase-3; set-up: method as in PMID 31005716; conditions: cited from earlier work

C=CC1=C(C)C(=O)C=C2CCC3=C(C=CC(=O)C3(C)OCC)C21OCC (stereo not shown) [Compound 2a]
IC50 ([1]; Homo sapiens, MCF7, 72 h): 80.5 ± 3.5 µM | IC50 ([2]; Homo sapiens, HeLa): 94.7 ± 3.4 µM | IC50 ([3]; 72 h): 94.3 ± 2 µM | IC50 ([4]; 72 h): > 100 µM | IC50 ([5]; Homo sapiens, A2780, 72 h): 66 ± 4.4 µM | IC50 ([6]; Homo sapiens, A2780cis): 62.9 ± 1.7 µM

C=CC1=C(C)C(=O)C=C2CCC3=C(C=CC(=O)C3(C)OCC)C21OCC (stereo not shown) [Compound 2b]
IC50 [1]: 41 ± 0.9 µM | IC50 [2]: 61.9 ± 0.3 µM | IC50 ([3]; 72 h): 45.8 ± 3.2 µM | IC50 ([4]; 72 h): 44.2 ± 2.6 µM | IC50 ([5]; 72 h): 39.4 ± 3.1 µM | IC50 [6]: 38 ± 4.6 µM

C=CC1=C(C)C(=O)C=C2CCC3=C(C=CC(=O)C3(C)OC)C21OC (stereo not shown) [Compound 1b]
IC50 ([1]; Homo sapiens, MCF7, 72 h): 52.1 ± 4.8 µM | IC50 ([2]; Homo sapiens, HeLa): > 100 µM | IC50 ([3]; Homo sapiens, HTB26, 72 h): 74.3 ± 3.6 µM | IC50 ([4]; Homo sapiens, MCF7, 72 h): > 100 µM | IC50 ([5]; Homo sapiens, A2780, 72 h): 80.3 ± 3 µM | IC50 ([6]; Homo sapiens, A2780cis): 88.2 ± 3.1 µM

C=CC1=CC(=O)C=C2CCC3=C(C=CC(=O)C3(C)OC)C12OC (stereo not shown) [Compound 3]
IC50 ([1]; Homo sapiens, MCF7, 72 h): 5.8 ± 0.2 µM | selectivity against MCF-7 cells over non-tumoral MRC-5 cells ([1]; ratio of IC50 MRC-5 / MCF-7): ca. 2.1 fold | IC50 ([2]; Homo sapiens, HeLa): 12.9 ± 0.4 µM | IC50 ([3]; Homo sapiens, HTB26, 72 h): 10.9 ± 0.9 µM | IC50 ([4]; Homo sapiens, MCF7, 72 h): 18.9 ± 1.4 µM | IC50 ([5]; Homo sapiens, A2780, 72 h): 8.6 ± 0.5 µM | IC50 ([6]; Homo sapiens, A2780cis): 10.9 ± 2.2 µM

C=CC1=CC(=O)C=C2CCC3=C(C=CC(=O)C3(C)OCC)C12OCC (stereo not shown) [Compound 4b]
IC50 [1]: 10.2 ± 0.1 µM | IC50 [2]: 35 ± 1.5 µM | IC50 ([3]; 72 h): 20.1 ± 1.1 µM | IC50 ([4]; 72 h): 29.4 ± 0.9 µM | IC50 ([5]; 72 h): 22 ± 2 µM | IC50 [6]: 22.1 ± 1.6 µM

C=Cc1c(C)c(O)cc2c1-c1ccc(O)c(C)c1CC2 [juncusol]
IC50 ([1]; Homo sapiens, MCF7, 72 h): 37.1 ± 1.1 µM | number of cells in the G2/M and subG1 cell cycle phase [7]: increased | IC50 ([2]; Homo sapiens, HeLa): 0.5 µM | toxicity on normal skin fibroblasts CCD966SK [8]: nontoxic | IC50 ([3]; Homo sapiens, HTB26, 72 h): 41.7 ± 3.5 µM | IC50 (HeLa cells): 0.95 µM | IC50 ([4]; Homo sapiens, MCF7, 72 h): 35.8 ± 1.7 µM | tubulin polymerization (tubulin): decreased | caspase-3 activity (caspase-3): significant and concentration-dependent increase | IC50 ([5]; Homo sapiens, A2780, 72 h): 23.8 ± 1.3 µM | IC50 ([6]; Homo sapiens, A2780cis): 37.1 ± 2.8 µM

C=Cc1cc(O)cc2c1-c1ccc(O)c(C)c1CC2 [effusol]
IC50 ([1]; Homo sapiens, MCF7, 72 h): 48.6 ± 3.4 µM | IC50 ([2]; Homo sapiens, HeLa): 2.3 ± 0.7 µM | IC50 ([3]; Homo sapiens, HTB26, 72 h): 57 ± 2.7 µM | IC50 (HeLa cells): 3.68 µM | IC50 ([4]; Homo sapiens, MCF7, 72 h): 39.3 ± 1.6 µM | IC50 ([5]; Homo sapiens, A2780, 72 h): 33.1 ± 3.1 µM | IC50 ([6]; Homo sapiens, A2780cis): 30.4 ± 0.4 µM

C=CC1=CC(=O)C=C2CCC3=C(C=CC(=O)C3(C)OCC)C12OCC (stereo not shown) [Compound 4a]
IC50 ([1]; Homo sapiens, MCF7, 72 h): 11.7 ± 0.7 µM | IC50 ([2]; Homo sapiens, HeLa): 24.4 ± 0.8 µM | IC50 ([3]; Homo sapiens, HTB26, 72 h): 16.1 ± 0.2 µM | IC50 ([4]; Homo sapiens, MCF7, 72 h): 23.5 ± 0.8 µM | IC50 ([5]; Homo sapiens, A2780, 72 h): 25.2 ± 1.8 µM | IC50 ([6]; Homo sapiens, A2780cis): 22.5 ± 0.2 µM

N.N.[Cl][Pt][Cl] [Cisplatin, cisplatin, reference compound]
IC50 [1]: 1.4 ± 1.1 µM | IC50 [2]: 2.3 ± 0.1 µM | IC50 ([3]; 72 h): 20.1 ± 2.3 µM | IC50 ([4]; 72 h): 6.7 ± 0.4 µM | IC50 ([5]; 72 h): 3.6 ± 0.3 µM | IC50 [6]: 7.3 ± 0.2 µM
